Data: patent publication US6218419A, “Aminoiminoquinone and aminoquinone alkaloid compounds and methods of use” (priority 1999, dated 2001)
Converted amounts (≈) assume the structure as drawn.

What was measured:
[1] = biological target: T1, CPP32 (Homo sapiens, UniProt P42574); experiment: CPP32 enzyme assay; format: biochemical
T1 construct: purchased BASF, Worcester, Mass
T1 sequence (P42574 29-175 limits assumed): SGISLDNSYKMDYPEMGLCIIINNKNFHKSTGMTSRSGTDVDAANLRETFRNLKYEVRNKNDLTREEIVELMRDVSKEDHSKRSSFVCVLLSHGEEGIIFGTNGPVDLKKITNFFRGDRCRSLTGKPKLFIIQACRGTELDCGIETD
T1 sequence (P42574 176-277 limits assumed): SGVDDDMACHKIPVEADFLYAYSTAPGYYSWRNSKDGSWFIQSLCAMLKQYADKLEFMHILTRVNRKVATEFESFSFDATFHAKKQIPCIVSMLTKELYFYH
Protocol: (§1) Each of the following assays were performed using either a Tecan 8051 or a Tecan Megaflex automated liquid handling system. Extracts of marine organisms were tested at 5 μg/ml for all assays except DPP IV and LAR which were tested at 50 μg/ml. The inhibition of enzyme activity found in the presence of extract was compared to that of an uninhibited control. Extracts which inhibited the enzyme>50% were retested in triplicate to confirm activity.
Test samples were aliquoted into 96 well microtiter plates and allowed to air dry. The stock CPP32 enzyme (BASF, Worcester, Mass.) was diluted by adding 10 μl of the enzyme to 17 ml of reaction buffer (50 mM Hepes pH 7.5; 10% glyccrol; 5 mM Dithiothreitol; 0.5 mM EDTA). A volume of 180 μl of the diluted enzyme was added to wells containing the dried test samples, or to empty wells (control). The contents of the microtiter wells were mixed by shaking on a plate shaker. Plates were incubated at 30° C. for 5 minutes. […] Controls for each plate consisted of an inhibitor control (50 nM DEVD-CHO final concentration); positive control (enzyme and substrate) and negative control (reaction buffer substrate). The plates were covered with aluminum foil and mixed using a plate shaker for 5 min. then incubated at 30° C. for 30 minutes. Plates were read using a plate reader with absorbance measured at 405 nm. Data was expressed as percent inhibition by comparing the absorbance values of test samples with those of the positive control (no sample).

[2] = test system: P388 murine leukemia; experiment: P388 in vitro anti-tumor testing (MTT); format: cell-based; conditions: Mus musculus, 48-hr exposure
Protocol: (§2) P388 cells can be obtained from the National Cancer Institute, Bethesda, Md., and A549 cells can be obtained from American Type Culture Collection, Rockville, Md. All cell lines are maintained in Roswell Park Memorial Institute (RPMI) medium 1640 supplemented with 10% bovine calf serum. All cell lines are cultured in plastic tissue culture flasks and kept in an incubator at 37° C. in humidified air containing 5% CO2. Prior to testing, antibiotic-free stock cultures of each of the cell lines are subcultured to 10^6 cells/ml by dilution in fresh growth medium at 2 to 3 day intervals.
To assess the antiproliferative effects of agents against the P388 cell line, 200 μl cultures (96 well tissue culture plates, Nunc, Denmark) are established at 1×10^5 cells/ml in drug-free medium or medium containing the test agent at 10.0, 1.0, 0.10 and 0.010 μg/ml. The solvent for all dilutions is ethanol. All experimental cultures are initiated in medium containing Gentamycin sulfate (50 μg/ml; Schering Corporation, Kenilworth, N.J.). After 48-hr exposure, P388 cells are enumerated using 3-[4,5-Dimethylthiazol-2-yl]-2,5-diphenyltetrazolium bromide (MTT) as described below.
(§3) To quantitate the effects on cell proliferation and resulting IC50 values, 75 μl of warm growth media containing 5 mg/ml MTT is added to each well, cultures are returned to the incubator, and left undisturbed for 90 minutes. […]

[3] = test system: A549 human lung adenocarcinoma; experiment: A549 in vitro anti-tumor testing (MTT); format: cell-based
Protocol: as §2
Similar procedures are utilized for A549 cells which require an additional 48 hr exposure prior to MTT addition. Results are expressed as percent inhibition compared to the negative (no drug) control. Positive drug controls are included to monitor drug sensitivity of each of the cell lines. These include varying dilutions of 5-fluorouracil, adriamycin, methotrexate and vinblastine.
as §3

[4] = biological target: T2, Calcineurin (Bos taurus, UniProt P48452); experiment: Calcineurin phosphatase assay (pNPP); format: biochemical, bovine; conditions: for inhibition at 0.5 µg/mL / inhibition at 5 µg/mL: 1 h, read-out: CaN, I; for inhibition at 0.5 µg/mL: at 0.5 μg/ml; for inhibition at 5 µg/mL: at 5 μg/ml; for IC50: pure compound, read-out: CaN, IC50 (converted)
T2 construct: Calcineurin was prepared from bovine brain; from tissue; host or cells: bovine brain
Protocol: Calcineurin activity was assayed in 96-well microtiter plates in a final volume of 50 μl. Each well contained 50 mM Tris-HCI pH 7.5, 0.5 mM MnCl2, 0.05 mM CaCl2, 1 mM DTT, 50 mM p-nitrophenylphosphate (pNPP), 0.3 μg calcineurin, a five-fold excess of calmodulin, and either test samples or control compounds. Plates were incubated at 30° C. for 60 min. Liberated p-nitrophenol was determined by the change in absorbance at 405 nm.

[5] = biological target: T3, Aminopeptidase N (CD13) (Homo sapiens, UniProt P15144); experiment: Aminopeptidase N (CD13) ELISA capture enzyme assay; format: biochemical; conditions: 18 h; at 5 μg/ml; read-out: ApN, I
T3 construct: The source of Aminopeptidase N was the KG-1 cell line; endogenous in cells; host or cells: KG-1 cell lysate
T3 sequence (P15144 whole entry): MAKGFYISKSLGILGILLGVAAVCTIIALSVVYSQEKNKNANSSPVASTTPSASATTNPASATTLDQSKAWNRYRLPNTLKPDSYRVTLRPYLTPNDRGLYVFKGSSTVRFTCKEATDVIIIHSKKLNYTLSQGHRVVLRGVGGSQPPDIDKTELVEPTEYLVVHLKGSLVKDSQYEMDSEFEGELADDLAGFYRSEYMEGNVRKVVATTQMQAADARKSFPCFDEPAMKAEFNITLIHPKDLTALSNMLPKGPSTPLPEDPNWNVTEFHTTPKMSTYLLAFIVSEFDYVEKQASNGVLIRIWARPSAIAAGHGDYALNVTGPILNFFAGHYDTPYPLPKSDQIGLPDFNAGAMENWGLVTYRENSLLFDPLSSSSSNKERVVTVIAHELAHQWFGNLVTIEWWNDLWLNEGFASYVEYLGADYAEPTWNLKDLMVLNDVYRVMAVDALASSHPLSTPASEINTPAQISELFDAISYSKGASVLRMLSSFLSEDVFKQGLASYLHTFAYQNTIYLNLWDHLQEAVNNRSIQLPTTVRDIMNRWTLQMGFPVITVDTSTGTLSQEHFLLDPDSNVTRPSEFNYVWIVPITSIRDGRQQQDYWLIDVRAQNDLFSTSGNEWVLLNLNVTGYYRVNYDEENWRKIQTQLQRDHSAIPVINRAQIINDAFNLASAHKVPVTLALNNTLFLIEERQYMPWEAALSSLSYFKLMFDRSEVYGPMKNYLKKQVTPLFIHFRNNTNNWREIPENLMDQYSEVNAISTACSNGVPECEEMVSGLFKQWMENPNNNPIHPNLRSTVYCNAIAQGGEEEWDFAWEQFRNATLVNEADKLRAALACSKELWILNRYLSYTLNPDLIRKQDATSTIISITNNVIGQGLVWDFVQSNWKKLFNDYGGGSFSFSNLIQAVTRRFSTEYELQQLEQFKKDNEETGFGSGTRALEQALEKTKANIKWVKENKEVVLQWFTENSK
Protocol: as §1
Aminopeptidase N was assayed using an Enzyme-Linked Immunosorbant (ELISA) capture assay. Briefly, 96-well plates were coated with goat anti-mouse immunoglobulins (Sigma #M4169). Following an overnight incubation the plates were washed three times with PBS-0.1% Triton X-100. The secondary (capture) antibody was then added to the plate (100 μl/well, 3.7 μg/ml; antihuman MY7, Coulter Corporation) and incubated for 3 hours at room temperature. Plates were washed three times with PBS-0.1% Triton X-100. The source of Aminopeptidase N was the KG-1 cell line, 100 μl of an appropriate dilution of the KG-1 cell lysate was added to each well, incubated for 3 hours and then washed a final time. The enzyme assay was performed in PBS in a final volume of 200 μl with 200 μM ala-pNA as substrate and either test samples or controls. Liberated p-nitroaniline was determined by the change in absorbance at 405 nm following an 18 hr incubation at 37° C.

[6] = test system: EL-4.IL-2 murine lymphoma cells; experiment: EL-4 adherence testing; format: cell-based
Text: This assay is based on the properties of extracts/pure compounds which serve as protein kinase C (PKC) active agents to either induce or inhibit the adherence of EL-4.IL-2 murine lymphoma cells to plastic surfaces. The general methodology of this assay is described in detail in the following: Longley, R. E. and D. Harmody (1991) J. Antibiotics 44:93-102.

[7] = test system: allogeneic immune responsiveness (MLR); experiment: Two-way mixed lymphocyte reaction (MLR); format: cell-based
Text: (§4) These assays measure the ability of the extracts/pure compounds to inhibit allogeneic immune responsiveness (MLR) and to affect the viability of unstimulated lymphocytes. These general methods are described in the following: Longley, R. E., D. Caddigan, D. Harmody, M. Gunasekera and S. P. Gunasekera (1991) Transplantation 52: 650-656.

[8] = test system: unstimulated lymphocytes; experiment: Lymphocyte viability (LCV) testing; format: cell-based
Text: as §4

[9] = biological target: T4, ICE (Homo sapiens, UniProt P29466); experiment: ICE enzyme assay; format: biochemical
T4 construct: purchased BASF, Worcester, Mass
T4 sequence (P29466 120-297 limits assumed): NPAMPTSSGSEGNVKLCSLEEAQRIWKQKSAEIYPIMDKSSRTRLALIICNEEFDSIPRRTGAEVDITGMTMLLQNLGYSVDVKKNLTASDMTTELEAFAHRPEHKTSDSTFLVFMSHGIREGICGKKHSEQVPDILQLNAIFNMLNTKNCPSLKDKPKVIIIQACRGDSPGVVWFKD
T4 sequence (P29466 317-404 limits assumed): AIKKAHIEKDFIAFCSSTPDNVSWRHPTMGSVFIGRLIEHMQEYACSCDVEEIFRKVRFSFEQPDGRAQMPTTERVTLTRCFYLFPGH
Protocol: as §1
Test samples were aliquoted into 96 well microtiter plates and allowed to air dry. Stock ICE enzyme (supplied by BASF, Worcester, Mass.) was diluted in reaction buffer (50 mM Hepes pH 7.5, 10% glycerol, 5 mM dithiothreitol,0.5 mM EDTA and 5 mM β-mercaptoethanol) to a concentration that yielded a minimum increase of 0.1 optical density units after 30 minutes of reaction time. Diluted ICE enzyme was incubated at room temperature for 5 minutes prior to aliquoting 180 μl into each sample well. The plates were incubated at 30° C. for 5 minutes following a brief mixing of the well contents by shaking on a plate shaker. A volume of 20 μl of the enzyme substrate (Ac-YVAD-pNA) was added to each well resulting in a final concentration of 50 μM. […] Plates were read on a plate reader with absorbance measured at 405 nm. Data was expressed as percent inhibition by comparing the absorbance values of test samples with those of the positive control (no sample).

Row | Compound | CPP32, IC50 [1] | inhibition at 0.5 µg/mL ([1]; 0.5 h, pH 7.5, at 0.5 μg/ml, read-out: CPP32, I) | inhibition at 5 µg/mL ([1]; 0.5 h, pH 7.5, at 5 μg/ml, read-out: CPP32, I) | IC50 [2] | IC50 [3] | inhibition at 0.5 µg/mL [4] | inhibition at 5 µg/mL [4] | IC50 [4] | inhibition at 5 µg/mL [5] | EL-4 adherence [6] | IC50 [7] | IC50 [8] | ICE inhibition [9]
1 | N=C1C(Cl)=C(N)C(=O)c2[nH]cc(C(O)CO)c21 (stereo not drawn) [Secobatzelline A, secobatzelline A] | 0.02 µg/mL | 76.2% | 86.5% | 0.06 µg/mL | 0.04 µg/mL | 46% | 75% | 2.15 µM | 54.9% | inh. adhesion | 0.68 µg/mL (≈ 2.66 µM) | 1.4 µg/mL (≈ 5.48 µM) | not detected
2 | NC1=C(Cl)C(=O)c2c(C(O)CO)c[nH]c2C1=O (stereo not drawn) [Secobatzelline B, secobatzelline B] | – | – | – | 1.22 µg/mL | 2.86 µg/mL | 22% | 43% | 8.61 µM | – | – | – | – | –
